Data as given in patent publication US12297207B2, “Maytansinoid derivatives, conjugates thereof, and methods of use” (priority 2015, dated 2025).
Like-named read-outs stand apart in the source and are kept apart here.

Assays:
[1] = test system: Ovcar3 (Muc16+) cells; test: In vitro cytotoxicity assay (CCK8 viability), Ovcar3 cells; assay type: cell-based
Method: (§1) In this Example, the ability of various antibody-drug conjugates or their associated payloads to kill antigen-expressing tumor cells in vitro was assessed.
(§2) Ovcar3 (Muc16+) or C4-2 (PSMA+) cells were seeded in 96 well plates at 3000 (C42) cells per well in complete growth media and grown overnight. For cell viability curves, serially diluted conjugates or payloads were added to the cells at final concentrations ranging from 300 nM to 5 pM and incubated for 3 days. To measure viability, cells were incubated with CCK8 (Dojindo) for the final 1-3 hours and the absorbance at 450 nm (OD450) was determined on a Victor (Perkin Elmer). Background OD450 levels determined from digitonin ([…]) treated cells were subtracted from all wells and viability is expressed as a percentage of the untreated controls. IC50 values were determined from a four-parameter logistic equation over a 10-point response curve (GraphPad Prism). All conjugate curves and IC50 values are corrected for payload equivalents.

[2] = test system: C4-2 (PSMA+) cells; test: In vitro cytotoxicity assay (CCK8 viability), C4-2 cells; assay type: cell-based
Method: as §1, §2

[3] = test system: T47D ductal carcinoma line (PRLR+); test: In vitro cytotoxicity assay (CellTiter-Glo), T47D cells; assay type: cell-based, human; settings: for IC50: 5 days; for maximum percent killing: T47D cells; for maximum percent killing / T47D % kill: highest concentration tested
Method: The present example provides cytotoxicity assays for conjugates provided herein. To evaluate the ability of anti-PRLR antibodies conjugated with 63, 60, 77, and 78 to kill a PRLR expressing cell line, an in vitro cytotoxicity assay using a T47D ductal carcinoma line (ATCC, #HTB-133), which was previously determined to express >27,000 copies of human PRLR at its cell surface, was utilized.
For the assay, T47D cells were seeded onto white 96 well plates at 2,000 cells/well in media containing DMEM supplemented with 10% FBS, NEAA, and pencillin/streptomycinin (complete media). They were grown overnight at 37° C. in 5% CO2. To determine cell viability curves, the following day antibody drug conjugates, unconjugated antibodies, or free payloads were added to the cells at final serial dilutions ranging from 100 nM to 0.01 nM in complete medium and then incubated for an additional 5 days. Luciferase activity was detected after the addition of CellTiter-Glo™ reagent (Promega, G7571) to each well, which contains reagents to lyse the remaining viable cells to release their ATP, ATPase inhibitors to prevent degradation of the ATP, as well as luciferin and luciferase to catalyse the luminescent reaction. Viable cells prior to addition of CellTiter-Glo will be the only source of ATP since the dead cells in culture will not synthesis ATP and any of their released ATP will be destroyed via endogenous ATPases. Relative light units (RLUs) were measured on a Victor luminometer (PerkinElmer) and the results were determined using a four-parameter logistic equation over a 10-point response curve (GraphPad Prism). All measured values and calculated IC50 values were corrected for payload equivalents. All IC50 values are expressed in nM concentration and percent kill is reported for the highest concentration tested.

[4] = Ovcar-3 cells, 3 days, conjugate values corrected for payload equivalents, read-out: IC50
[5] = Table 2, payloads only, read-out: Ovcar3 IC50
[6] = Table 5, payloads only, read-out: Ovcar3 IC50
[7] = C4-2 cells, 3 days, conjugate values corrected for payload equivalents, read-out: IC50
[8] = Table 2, payloads only, read-out: C4-2 IC50
[9] = Table 5, payloads only, read-out: C4-2 IC50
[10] = corrected for payload equivalents, read-out: IC50 (cytotoxicity of T47D cells)
[11] = Table 5, payloads only, read-out: T47D IC50

Row | Structure (SMILES) | Ovcar3 % kill ([1]; Table 2, payloads only) | IC50 [1, 5] | Ovcar3 % kill ([1]; Table 5, payloads only) | IC50 [1, 6] | C4-2 % kill ([2]; Table 2, payloads only) | IC50 [2, 8] | C4-2 % kill ([2]; Table 5, payloads only) | IC50 [2, 9] | IC50 [3, 11] | T47D % kill ([3]; Table 5, payloads only) | further results
1 | COc1cc2cc(c1Cl)N(C)C(=O)C[C@H](OC(=O)[C@H](C)N(C)C(=O)c1ccc(N)cc1)[C@]1(C)O[C@H]1[C@H](C)[C@@H]1C[C@@](O)(NC(=O)O1)[C@H](OC)/C=C/C=C(\C)C2 [Compound 27, Maytansin-N-methyl-L-alanine-4-aminobenzamide] | 92% | 0.09 nM | 92% | 0.09 nM | 84% | 0.2 nM | 84% | 0.2 nM |  |  | IC50 [1, 4]: 0.06 nM; IC50 [2, 7]: 0.2 nM; IC50 [3, 10]: 0.1 nM; maximum percent killing [3]: 67%
2 | COc1cc2cc(c1Cl)N(C)C(=O)C[C@H](OC(=O)[C@H](C)N(C)C(=O)c1ccc(N)c(C(F)(F)F)c1)[C@]1(C)O[C@H]1[C@H](C)[C@@H]1C[C@@](O)(NC(=O)O1)[C@H](OC)/C=C/C=C(\C)C2 [Compound 35, Maytansin-N-methyl-L-alanine-N-(3-trifluoromethyl-4-amino)benzamide] | 93% | < 0.01 nM | 93% | < 0.01 nM | 84% | 0.004 nM | 84% | 0.004 nM |  |  | 
3 | COc1cc2cc(c1Cl)N(C)C(=O)C[C@H](OC(=O)[C@H](C)N(C)C(=O)c1ccc(N)c(Cl)c1)[C@]1(C)O[C@H]1[C@H](C)[C@@H]1C[C@@](O)(NC(=O)O1)[C@H](OC)/C=C/C=C(\C)C2 [Compound 43, Maytansin-N-methyl-L-alanine-(3-chloro-4-amino)benzamide] |  |  |  |  |  |  |  |  | 0.01 nM | 71% | 
4 | COc1cc2cc(c1Cl)N(C)C(=O)CC(OC(=O)C(C)N(C)C(=O)c1ccc(N)c(C)c1)C1(C)OC1C(C)C1CC(O)(NC(=O)O1)C(OC)C=CC=C(C)C2 [Compound 53, Maytansin-N-methyl-L-alanine-(3-methyl-4-amino)benzamide] |  |  |  |  |  |  |  |  | 0.2 nM | 72% | 
5 | COc1cc2cc(c1Cl)N(C)C(=O)C[C@H](OC(=O)[C@H](C)N(C)C(=O)c1ccc(N)c3ncccc13)[C@]1(C)O[C@H]1[C@H](C)[C@@H]1C[C@@](O)(NC(=O)O1)[C@H](OC)/C=C/C=C(\C)C2 [Compound 55, Maytansin-N-methyl-L-alanine-(8-amino-5-carboxyquinoline)carboxamide] |  |  |  |  |  |  |  |  | 0.18 nM | 75% | 
6 | COc1cc2cc(c1Cl)N(C)C(=O)C[C@H](OC(=O)[C@H](C)N(C)C(=O)c1ccc(N)cc1C(F)(F)F)[C@]1(C)O[C@H]1[C@H](C)[C@@H]1C[C@@](O)(NC(=O)O1)[C@H](OC)/C=C/C=C(\C)C2 [Compound 31, Maytansin-N-methyl-L-alanine-(2-trifluoromethyl-4-amino)benzamide] | 93% | 0.04 nM | 93% | 0.04 nM | 82% | 0.1 nM | 82% | 0.1 nM |  |  | 
7 | COc1cc2cc(c1Cl)N(C)C(=O)C[C@H](OC(=O)[C@H](C)N(C)C(=O)c1cc(F)c(N)cc1F)[C@]1(C)O[C@H]1[C@H](C)[C@@H]1C[C@@](O)(NC(=O)O1)[C@H](OC)/C=C/C=C(\C)C2 [Compound 39, Maytansin-N-methyl-L-alanine-N-(2,5-difluoro-4-amino)benzamide] |  |  |  |  |  |  |  |  | 0.02 nM | 70% | 
8 | COc1cc(N)ccc1C(=O)N(C)[C@@H](C)C(=O)O[C@H]1CC(=O)N(C)c2cc(cc(OC)c2Cl)C/C(C)=C/C=C/[C@@H](OC)[C@@]2(O)C[C@H](OC(=O)N2)[C@@H](C)[C@@H]2O[C@@]12C [Compound 33, Maytansin-N-methyl-L-alanine-(2-methoxy-4-amino)benzamide] | 93% | 0.2 nM | 93% | 0.2 nM | 86% | 0.45 nM | 86% | 0.45 nM |  |  | IC50 [1, 4]: 0.11 nM; IC50 [2, 7]: 0.55 nM
9 | COc1ccc(N)cc1C(=O)N(C)[C@@H](C)C(=O)O[C@H]1CC(=O)N(C)c2cc(cc(OC)c2Cl)C/C(C)=C/C=C/[C@@H](OC)[C@@]2(O)C[C@H](OC(=O)N2)[C@@H](C)[C@@H]2O[C@@]12C [Compound 65, Maytansin-N-methyl-L-alanine-N-(2-methoxy-5-amino)benzamide] |  |  |  |  |  |  |  |  | 1.13 nM | 72% | 
10 | COc1ccc(C(=O)N(C)[C@@H](C)C(=O)O[C@H]2CC(=O)N(C)c3cc(cc(OC)c3Cl)C/C(C)=C/C=C/[C@@H](OC)[C@@]3(O)C[C@H](OC(=O)N3)[C@@H](C)[C@@H]3O[C@@]23C)cc1N [Compound 67, Maytansin-N-methyl-L-alanine-N-(3-amino-4-methoxy)benzamide] |  |  |  |  |  |  |  |  | 0.19 nM | 71% | 
11 | COc1cc2cc(c1Cl)N(C)C(=O)C[C@H](OC(=O)[C@H](C)N(C)C(=O)c1ccc(N)c(F)c1)[C@]1(C)O[C@H]1[C@H](C)[C@@H]1C[C@@](O)(NC(=O)O1)[C@H](OC)/C=C/C=C(\C)C2 [Compound 41, Maytansin-N-methyl-L-alanine-(3-fluoro-4-amino)benzamide] |  |  |  |  |  |  |  |  | 0.03 nM | 72% | 
12 | COc1cc2cc(c1Cl)N(C)C(=O)C[C@H](OC(=O)[C@H](C)N(C)C(=O)c1ccc(N)cc1C)[C@]1(C)O[C@H]1[C@H](C)[C@@H]1C[C@@](O)(NC(=O)O1)[C@H](OC)/C=C/C=C(\C)C2 [Compound 51, Maytansin-N-methyl-L-alanine-(2-methyl-4-amino)benzamide] |  |  |  |  |  |  |  |  | 0.49 nM | 72% | 
13 | COc1cc(C(=O)N(C)[C@@H](C)C(=O)O[C@H]2CC(=O)N(C)c3cc(cc(OC)c3Cl)C/C(C)=C/C=C/[C@@H](OC)[C@@]3(O)C[C@H](OC(=O)N3)[C@@H](C)[C@@H]3O[C@@]23C)ccc1N [Compound 49, Maytansin-N-methyl-L-alanine-(3-methoxy-4-amino)benzamide] |  |  |  |  |  |  |  |  | 0.06 nM | 70% | IC50 [3, 10]: 0.03 nM; maximum percent killing [3]: 69%
14 | COc1cc2cc(c1Cl)N(C)C(=O)C[C@H](OC(=O)[C@H](C)N(C)C(=O)c1cc(N)cc(F)c1)[C@]1(C)O[C@H]1[C@H](C)[C@@H]1C[C@@](O)(NC(=O)O1)[C@H](OC)/C=C/C=C(\C)C2 [Compound 69, Maytansin-N-methyl-L-alanine-N-(3-amino-5-fluoro)benzamide] |  |  |  |  |  |  |  |  | 0.39 nM | 73% | 
15 | COc1cc2cc(c1Cl)N(C)C(=O)C[C@H](OC(=O)[C@H](C)N(C)C(=O)c1cc(F)c(N)cc1Cl)[C@]1(C)O[C@H]1[C@H](C)[C@@H]1C[C@@](O)(NC(=O)O1)[C@H](OC)/C=C/C=C(\C)C2 [Compound 37, Maytansin-N-methyl-L-alanine-N-(2-chloro-4-amino-5-fluoro)benzamide] | 94% | < 0.01 nM | 94% | < 0.01 nM | 86% | 0.01 nM | 86% | 0.01 nM |  |  | 
